One data set has as its system albino mice. Put plainly: acute toxicity test for maximum tolerance dose (MTD) as a single dose. Conditions: for maximum tolerant doses (MTD): albino mice (25±2 g), intraperitoneal single dose, observed for 24 hr. The format is in vivo. The text has this:
There has been a lot of research on the effect of the substituents and functional groups which make a substance toxic or eliminate the toxicity. Any chemical substance that is electrophilic or metabolized to electrophilic species are often quite toxic, because electrophilic substances can react covalently with nucleophilic substituents of cellular macromolecules such as DNA, RNA, enzymes and proteins. These irreversible covalent interactions with important cellular macromolecules interfere with the macromolecule's function and can lead to a variety of toxic effects including cancer, hepatotoxicity, reproductive toxicity and developmental toxicity. It has been realised that the side chain of β-asarone contains carbon-carbon double bond, which can be metabolized to epoxide. The epoxide so formed is highly electrophilic and is capable of interacting with biological tissues, and could therefore, be the reason for the toxicity of β-asarone. In view of the above fact, it was possible to reduce the toxicity of β-asarone by hydrogenating the side olefinic bond into 1-propyl-2,4,5-trimethoxybenzene having a single bond as a side chain. The toxicity of the reduced calamus oil as well as of 1-Propyl-2,4,5-trimethoxy-benzene was tested. Toxicity test was performed on albino mice (body weight 25±2 g). […] Where the initial pilot dose was lethal, the sample was diluted. This was the acute toxicity test for maximum tolerance dose (MTD) as a single dose. […] It must be noted that further reduction in toxicity is possible by further dilution as the odor intensity of 1-Propyl-2,4,5-trimethoxybenzene and reduced calamus oil is substantially stronger than both β-asarone and calamus oil.

For data set [1], the system named is [3H] spiperone binding sites. Particulars: in vitro; cited from earlier work.
For data set [2], the system named is [3H] raclopride binding sites. Conditions: in vitro; cited from earlier work.
In a further data set the test system is rats. Particulars: cited from earlier work.
Another data set relates to human lymphocytes. Particulars: human lymphocytes in-vitro after metabolic activation; cited from earlier work.
A further data set concerns animals. Conditions: cited from earlier work.

Consider `CCCc1cc(OC)c(OC)cc1OC` [1-Propyl-2,4,5-trimethoxybenzene], for which the “toxicity relative to the unreduced starting material (times less toxic)” value in the data set on albino mice (1-Propyl-2,4,5-trimethoxybenzene vs β-asarone, reduced calamus oil vs calamus oil, from MTD in albino mice) is “nearly five times and five”. For the same compound, the “maximum tolerant doses (MTD)” value in the data set on albino mice turned out to be 0.56 ml/kg b.w.
With `CCCc1cc(OC)c(OC)c(C(=O)NCC2CCCN2CC)c1O` (stereo not drawn) [salicylamide derivative, 5,6-dimethoxy-N[(1-ethyl-2-pyrrolidinyl)methyl]-3-propylsalicylamide], the “affinity for [3H] spiperone binding sites” value in data set [1] was “high and stereoselective affinity”. Besides, the “affinity for [3H] raclopride binding sites” value in data set [2] was “high and stereoselective affinity”.
Regarding `C/C=C/c1cc(OC)c(OC)cc1OC` [α-Asarone], the lethality entry in the data set on rats was “fatal”.
For `C/C=C\c1cc(OC)c(OC)cc1OC` [β-asarone, cis-2,4,5-trimethoxy-1-propenylbenzene], the “maximum tolerant doses (MTD)” value in the data set on albino mice is reported as 0.12 ml/kg b.w. Further, in the data set with human lymphocytes, the chromosome damaging effect result is “chromosome damaging effect”. Further, in the data set on animals (after oral administration), the tumour induction result is “induce tumours in the duodenal region”. In addition, the carcinogenicity entry in the data set on animals (animals, higher percentage of β-asarone) is on record as “carcinogenic”.

These data come from US6528041B2, “Process for the preparation of 1-Propyl-2, 4, 5-trimethoxybenzene from toxic β-asarone of acorus calamus or from crude calamus oil containing β-asarone” (Council of Scientific and Industrial Research, priority 2000, dated 2003).
